In patent US6727253B2, “Treatment of accidental extravasation of anthracyclines” (Antianthra APS, priority 1999, dated 2004):
Like-named read-outs stand apart in the source and are kept apart here.

Legend:
[1] = system: extravasation of doxorubicin in a patient; assay: Clinical results in a patient with doxorubicin extravasation; format: in vivo
[2] = system: SC idarubicin induced wounds in mice; conditions: for AUC / DW / FW / TTW: Table A
Experimental: The mice were euthanized after healing of all wounds.
[…] Half of the groups served a saline controls, whereas in the other half of the groups ICRF-187 250 mg/kg was administered IP at t=0.

[3] = system: wound after daunorubicin SC in swine; assay: Pilot study on swine, daunorubicin SC; format: in vivo; conditions: 1 ml daunorubicin SC
Experimental: A danish porker weighting approximately 30 kg was used. The animals were fully anesthesized and artificially ventilated during SC injection of 1 ml of anthracycline.

[4] = Example 9, idarubicin 0.05 mg/kg sc + ICRF-187 250 mg/kg IP at t=0
[5] = Example 9, idarubicin 0.25 mg/kg sc + ICRF-187 250 mg/kg IP at t=0
[6] = Example 9, idarubicin 0.75 mg/kg sc + ICRF-187 250 mg/kg IP at t=0
[7] = idarubicin 0.05 mg/kg SC + DEX 250 mg/kg IP at t=0
[8] = idarubicin 0.25 mg/kg SC + DEX 250 mg/kg IP at t=0
[9] = idarubicin 0.75 mg/kg SC + DEX 250 mg/kg IP at t=0, pooled data
[10] = idarubicin 1.50 mg/kg SC + DEX 250 mg/kg IP at t=0

C[C@@H](CN1CC(=O)NC(=O)C1)N1CC(=O)NC(=O)C1 [ICRF-187, (+)-1,2-bis(3,5-dioxopiperazinyl-1-yl)propane]
ulcer or skin-necrosis ([1]; 149 mg doxorubicin infused subcutaneously, ICRF-187 day 1-3, 30 days evaluation): No ulcer or signs of skin-necrosis developed | side effects from the treatment ([1]; ICRF-187 1000, 1000, 500 mg/m^2 on day 1, 2, 3, initiated 2 h 30 m after extravasation): no side effects | Mean AUC [2, 4]: 4 mm^2 × days | Mean DWw ± SEM [2, 4]: 13.0 ± 0.0 days | Mean TTWw ± SEM [2, 4]: 12.0 ± 0.0 days | Nw/NG [2, 4]: 11% | Mean AUC [2, 5]: 38 mm^2 × days | Mean DWw ± SEM [2, 5]: 20.0 ± 0.0 days | Mean TTWw ± SEM [2, 5]: 6.0 ± 0.0 days | Nw/NG [2, 5]: 11% | Mean AUC [2, 6]: 44 mm^2 × days | Mean DWw ± SEM [2, 6]: 17.5 ± 0.5 days | Mean TTWw ± SEM [2, 6]: 8.0 ± 0.0 days | Nw/NG [2, 6]: 22% | reduction in the AUC ([2]; Example 9, idarubicin 0.75 mg/kg sc, ICRF-187 250 mg/kg IP vs saline, p<0.05): 90% | AUC [2, 7]: 4 (± 4) mm^2×days | DW [2, 7]: 13.0 (± 0.0) days | FW [2, 7]: 11% | TTW [2, 7]: 12.0 (± 0.0) days | AUC [2, 8]: 38 (± 38) mm^2×days | DW [2, 8]: 20.0 (± 0.0) days | FW [2, 8]: 11% | TTW [2, 8]: 6.0 (± 0.0) days | AUC [2, 9]: 42 (± 19) mm^2×days | DW [2, 9]: 15.6 (± 2.7) days | FW [2, 9]: 28% | TTW [2, 9]: 10.2 (± .5) days | AUC [2, 10]: 183 (± 54) mm^2×days | DW [2, 10]: 17.8 (± 0.9) days | FW [2, 10]: 75% | TTW [2, 10]: 7.7 (± 0.2) days | deaths due to the treatment ([2]; mouse, in vivo): no deaths due to the treatment | wound appearance ([3]; ICRF-187 25 mg/kg IV daily for three days): no wound appeared | wound appearance ([3]; ICRF-187 50 mg/kg IV at t=0): a small wound appeared
